From patent publication US7090780B2, “Bactericide for use in water treatment, method for water treatment and apparatus for water treatment” (Toray Industries, Inc., priority 2001, dated 2006)

Conditions: 50 ppm of sulfuric acid added to pressure-sterilized physiological salt solution (salt concentration 0.9 wt %)

O=S(=O)(O)O [sulfuric acid]
pH of the liquid: 3.2
